These results are taken from patent publication US20250092014A1, “COMPOUNDS AND METHODS OF ACTIVATING LIPOPROTEIN LIPASE” (Metrea Biosciences, Inc., priority 2021, published 2025).

Entries after “also recorded” stand apart in the source; their conditions may differ.

Experiment [1] addresses T1, Human LPL (Homo sapiens, UniProt P06858).
T1 construct: purchased R&D Systems; host or cells: LPL added from outside to CHO pgsA-745 cells stably transfected with human GPIHBP1-HA
T1 sequence (P06858 28-475): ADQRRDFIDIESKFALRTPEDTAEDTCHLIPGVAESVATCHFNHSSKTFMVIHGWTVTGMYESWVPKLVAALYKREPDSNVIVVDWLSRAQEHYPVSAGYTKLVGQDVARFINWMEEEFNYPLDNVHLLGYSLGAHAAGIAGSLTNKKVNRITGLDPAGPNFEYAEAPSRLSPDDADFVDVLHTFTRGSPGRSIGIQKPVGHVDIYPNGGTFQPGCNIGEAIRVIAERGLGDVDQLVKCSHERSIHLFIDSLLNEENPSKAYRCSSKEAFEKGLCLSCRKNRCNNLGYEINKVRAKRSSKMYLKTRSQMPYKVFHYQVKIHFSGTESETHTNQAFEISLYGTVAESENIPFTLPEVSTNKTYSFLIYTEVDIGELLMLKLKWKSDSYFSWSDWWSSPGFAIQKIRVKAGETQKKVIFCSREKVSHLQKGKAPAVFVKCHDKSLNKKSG
T1 sequence (Q8IV16 21-151 partner limits assumed): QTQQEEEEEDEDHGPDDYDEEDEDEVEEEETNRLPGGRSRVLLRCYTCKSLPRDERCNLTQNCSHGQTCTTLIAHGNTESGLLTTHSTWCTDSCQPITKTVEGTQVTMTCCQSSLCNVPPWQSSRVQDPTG
The experiment in a line: Cellular lipolysis assay, Angptl4 protection, CHO pgsA-745/GPIHBP1 cells. The format is cell-based. The note with it: 30 μM, 10 μM, 3 μM, 1 M and 0.3 μM doses, compared to 50 nM LPL with 30 nM Angptl4. As to the method:
(§1) Chinese hamster ovary (CHO) mutant pgsA-745 cells were grown in F-12K media (ATCC) with 10% FBS and penicillin/streptomycin. One day prior to transfection 300,000 cells were seeded per well in a 6 well plate and cultured overnight. 2 μg of human GPIHBPI in pcDNA3.1(+)—C-HA (Genscript) were transfected using Lipofectamine 3000 (Invitrogen) and the cells were cultured for 24 hours. Cells were split into selection media (600 μg/ml G418 (Gibco)) and a stable pool was established and verified by qPCR and western blotting using anti-HA (Cell Signaling) and GPIHBP1 (Santa Cruz) antibodies (data not shown).
(§2) CHO pgsA-745 cells overexpressing GPIHBPI were seeded at 200,000 cells per well in 24 well plates and cultured overnight. Media was replaced with serum-free F-12K media containing 0.1 U/ml heparin and cultured for 2 hours to remove surface bound endogenous LPL, then cells were washed with PBS. Human LPL (R&D Systems) was diluted to 50 nM in serum free media and added for 30 minutes gently shaking at room temperature, then cells were washed with PBS to remove unbound LPL. Test compounds were diluted in serum free media and added to cells for 20 minutes at room temperature gently shaking, followed by 10× ANGPTL4 (30 nM final concentration) for another 20 minutes. Test compound and ANGPTL4 were removed and cells washed with PBS. […] Media was removed and fluorescence read at Ex482/Em515.

The target of experiment [2] is T1, Human LPL. The experiment can be described thus: Cellular lipolysis assay, intrinsic activation (Angptl4 omitted), CHO pgsA-745/GPIHBP1 cells. The format is cell-based. As to conditions: 30 μM, 10 PM, 3 μM and 1 μM doses, compared to 50 nM LPL alone. On the procedure: as §1
as §2, with “Test compounds were diluted in serum free media and added to cells for 20 minutes at room temperature gently shaking, followed by 10× ANGPTL4 (30 nM final concentration) for another 20 minutes.” left out

On to `O=C(O)Cc1cc(F)ccc1NC(=O)c1ccc(N2CCCCC2)c(NC(=O)c2nn(CC(F)(F)F)c3ccccc23)c1` [Compound 158, 2-(5-fluoro-2-(4-(piperidin-1-yl)-3-(1-(2,2,2-trifluoroethyl)-1H-indazole-3-carboxamido)benzamido)phenyl)acetic acid], for which the “lipolysis activity (EnzChek substrate fluorescence), protection of LPL from inactivation by ANGPTL4” value at Human LPL [1] is given as “protective action; also recorded: significantly increased lipolysis activity”. The “lipolysis activity (EnzChek substrate fluorescence), intrinsic activation of LPL” value at Human LPL [2] was “intrinsic activation; also recorded: significantly increased lipolysis activity”.
